{"source": "paper PMC11530130", "about": "“Peripherally restricted PICK1 inhibitor mPD5 ameliorates pain behaviors in murine inflammatory and neuropathic pain models” (JCI Insight, 2024)", "key": {"[1]": {"molecular_target": "T1, recombinant full-length PICK1 (Rattus norvegicus, UniProt Q9EP80)", "T1 construct": "Full length rat PICK1 (pET41) was, as described earlier (1), expressed in BL21-DE3-pLysS; inferred from the pET41 vector and the glutathione-Sepharose capture) (N, cleaved yes); made in house; host or cells: E. coli BL21-DE3-pLysS", "T1 sequence (Q9EP80 whole entry)": "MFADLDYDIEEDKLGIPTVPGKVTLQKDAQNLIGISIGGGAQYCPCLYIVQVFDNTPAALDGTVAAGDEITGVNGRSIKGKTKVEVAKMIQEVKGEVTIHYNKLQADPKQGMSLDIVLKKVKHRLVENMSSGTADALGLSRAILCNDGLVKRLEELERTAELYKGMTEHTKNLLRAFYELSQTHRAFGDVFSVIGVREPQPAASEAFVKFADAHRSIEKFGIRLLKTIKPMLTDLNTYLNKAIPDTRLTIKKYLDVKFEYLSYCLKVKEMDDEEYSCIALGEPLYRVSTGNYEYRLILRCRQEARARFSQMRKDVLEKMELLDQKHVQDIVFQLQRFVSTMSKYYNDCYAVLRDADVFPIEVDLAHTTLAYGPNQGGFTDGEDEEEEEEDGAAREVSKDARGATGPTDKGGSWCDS", "experiment": "SEC of recombinant PICK1 in absence or presence of mPD5", "format": "binding", "conditions": "PICK1 40 μM with mPD5 10 μM; from 10.9 mL to 2 peaks at 8 mL and 9 mL", "procedure": "SUPPORTING INFORMATION: Method Section.\nSex as a biological variable.\nAll peptides were ordered from WuXI AppTec (Shanghai, China) or TAG-Copenhagen […]\nAssessment of solubility and stability of mPD5.\nSolubility was determined by visual inspection of samples dissolved in increasing concentration in 10 mM PBS as judged by full transparency and monophasic appearance.\nStability was addressed by […] for four concentrations (2, 20, 50, and 200 µM), by leaving mPD5 in PBS at 5 °C and 25 °C for 30 days followed by HPLC-UV-MS.\nProtein expression and purification.\nFull length rat PICK1 (pET41) was, as described earlier (1), expressed in BL21-DE3-pLysS and grown at 37 °C, induced at OD600= 0.6 with 1 mM IPTG, and grown for 16 hours at 20 °C.\nCultures were harvested and re-suspended in 50 mM Tris, 125 mM NaCl, 2 mM DTT (Sigma), 1% Triton X-100 (Sigma), 20 µg/mL DNAse 1 and half a tablet of cOmplete protease inhibitor cocktail (Roche) pr. 1 L culture. The resuspended pellets were frozen at -80 °C for later purification. […] PICK1 was eluted on ice and concentration was measured on a NanoDrop 3000.\nFluorescence polarization binding. […]\nbinding surface 96 well plates (Sigma-Aldrich, Ref. no. 3686). The plates were incubated 20 min on ice and the fluorescence polarization was measured on an Omega POLARstar plate reader (BMG LABTECH) using excitation filter of 485 nm and long pass emission filter of 520 nm. […]"}, "[2]": {"system": "mice, CFA model of inflammatory pain", "experiment": "CFA model, marble-burying test", "format": "in vivo, mouse", "procedure": "Induction of inflammatory pain (CFA model).\nInjury was induced on the right hind paw, whereas the contralateral left hind paw was used as internal control of the C57BL/6J male and female mice (Janvier, France). The inflammatory pain was induced by injection of 50 μL undiluted Complete Freund’s Adjuvant (CFA) (F5881, Sigma) unilaterally into the intraplantar surface of the right hind paw, whereas control mice were injected with the same amount of 0.9 % saline (B. Braun, Germany). All intraplantar injections were performed with an insulin needle (0.3 mL BD Micro-Fine) while the animal was under isoflurane anaesthesia (2%) for maximum 60 seconds. Von Frey was applied up to 11 days after unilateral CFA injection depending on the experiment. […]\nFor the first experiment with sustained administration of mPD5 (Figure 7C), the mice underwent a baseline von Frey reading as described in the “Mechanically-evoked pain (von Frey).”-section and SNI surgery as described in “Induction of neuropathic pain (SNI model).”-section. […] At 4,5 hours after the 10 μmol/kg mPD5 injection paw withdrawal threshold was measured again followed by a s.c. injection of 2 μmol/kg mPD5 in all animals. The PWT was measured again at 6 hours +7 hours + 8 hours + 9 hours + 10 hours + 11 hours + 22 hours + 23 hours + 25 hours + 27 hours + 49 hours + 121 hours after the initial 10 μmol/kg mPD5 injection performed on day 125. […]"}, "[3]": {"experiment": "Plasma exposure after repeated s.c. administration (10 + 2 + 2 + 2 + 2 μmol/kg), LC-MS/MS", "format": "in vivo, mouse", "conditions": "10µmol/kg repeated"}}, "note": "“And” between values parts separate entries of the source, which are not always exact repeats. Equal values may be shown once."}
{"compound": "CCCCCCCCCCCCCC(=O)N(CCOCCOCCC(=O)N[C@@H](Cc1c[nH]cn1)C(=O)N[C@@H](Cc1c[nH]c2ccccc12)C(=O)N[C@@H](CC(C)C)C(=O)N[C@@H](CCCCN)C(=O)N[C@H](C(=O)O)C(C)C)CCOCCOCCC(=O)N[C@@H](Cc1c[nH]cn1)C(=O)N[C@@H](Cc1c[nH]c2ccccc12)C(=O)N[C@@H](CC(C)C)C(=O)N[C@@H](CCCCN)C(=O)N[C@H](C(=O)O)C(C)C", "note": "[mPD5, myristoyl-NPEG4-(HWLKV)2]", "values": [{"measurement": "shift of PICK1 SEC elution (higher-order complexes)", "setting": "[1]", "result": "distinct shift in the peak elution volume of PICK1"}, {"measurement": "effect on CFA-induced decrease in marble burying", "setting": "[2]; 10 μmol/kg, to the level of the naive mice", "result": "reverted significantly"}, {"measurement": "marbles buried, individual mice", "setting": "[2]; 1 hour after s.c. 10 μmol/kg", "result": "6 and 9 and 10 and 11 and 7 and 4 and 5"}, {"measurement": "Plasma exposure, Fig 7B, individual mice", "setting": "[3]", "result": "2068 and 1389 and 1614"}]}
